One data set has as its system Daphnia magna. The data set is described as follows: Toxicity in Daphnia magna assessed as […] concentration measured up to 48 hr. The format is organism-based.
Another data set has as its system Plutella xylostella. The data set is described as follows: Insecticidal activity against second or third-instar Plutella xylostella (diamondback moth) in compound treated cabbage leaves at 26 degC. The format is functional.
The nature of data set [1]: Lipophilicity, log P of the compound by HPLC method. The class given is physicochemical.

Here are results for 17 compounds from ChEMBL document CHEMBL3045174, “Synthesis and Insecticidal Activity of Alkylated N-Benzoyl-N-Phenylureas and Their Toxicity to Aquatic Invertebrate” (J Pestic Sci, 1998).

In the case of `CN(C(=O)NC(=O)c1c(F)cccc1F)c1ccc(-c2ccc(Br)cc2)cc1`, the EC50 in the data set with Daphnia magna was 150 ppb. Moreover, the LC90 in the data set on Plutella xylostella worked out at 0.04 ppm.

On to `CN(C(=O)NC(=O)c1c(F)cccc1F)c1cc(Cl)c(F)c(Cl)c1F`, for which the EC50 in the data set with Daphnia magna is reported as more than 500 ppb. In the data set on Plutella xylostella, the LC90 is recorded as 0.15 ppm.

Take `CN(C(=O)NC(=O)c1c(F)cccc1F)c1ccc(Cl)cc1`: in the data set on Daphnia magna, the EC50 was more than 500 ppb. Besides, the LC90 in the data set on Plutella xylostella is 12.5 ppm.

For `CN(C(=O)NC(=O)c1c(F)cccc1F)c1ccc(Oc2ccc(C(F)(F)F)cc2Cl)c(F)c1`, the EC50 with Daphnia magna came out at 500 ppb. The LC90 in the data set on Plutella xylostella worked out at 0.04 ppm.

In the data set on Plutella xylostella, `O=C(NC(=O)N(CC(F)(F)F)c1cc(Cl)c(Oc2ncc(C(F)(F)F)cc2Cl)c(Cl)c1)c1c(F)cccc1F` gave an LC90 of 1.25 ppm.

`O=C(NC(=O)N(Cc1ccccc1)c1cc(Cl)c(Oc2ncc(C(F)(F)F)cc2Cl)c(Cl)c1)c1c(F)cccc1F` registered an LC90 in the data set on Plutella xylostella of 5 ppm.

In the case of `CN(C(=O)NC(=O)c1c(F)cccc1F)c1ccc(Oc2ccc(C(F)(F)F)cc2Cl)c(Cl)c1`, the EC50 in the data set on Daphnia magna stood at 100 ppb. For the same compound, in the data set on Plutella xylostella, the LC90 is 0.04 ppm.

As for `CN(C(=O)c1c(F)cccc1F)C(=O)N(C)c1cc(Cl)c(Oc2ncc(C(F)(F)F)cc2Cl)c(Cl)c1`, the EC50 in the data set with Daphnia magna was more than 500 ppb. For the same compound, the LC90 in the data set with Plutella xylostella was 0.3 ppm. Further, the log partition coefficient (logP) in data set [1] was found to be 4.76.

In the data set on Plutella xylostella, `CCN(C(=O)NC(=O)c1c(F)cccc1F)c1cc(Cl)c(Oc2ncc(C(F)(F)F)cc2Cl)c(Cl)c1` displayed an LC90 of 0.3 ppm.

`CC(C)N(C(=O)NC(=O)c1c(F)cccc1F)c1cc(Cl)c(Oc2ncc(C(F)(F)F)cc2Cl)c(Cl)c1` yielded an LC90 with Plutella xylostella of 0.8 ppm.

Take `CN(C(=O)NC(=O)c1c(F)cccc1F)c1cc(Cl)c(Oc2ncc(C(F)(F)F)cc2Cl)c(Cl)c1`: the EC50 with Daphnia magna is listed as 450 ppb. In the data set on Plutella xylostella, this compound displayed an LC90 of 0.08 ppm. In data set [1], the logP worked out at 4.21.

On to `CN(C(=O)Nc1cc(Cl)c(Oc2ncc(C(F)(F)F)cc2Cl)c(Cl)c1)C(=O)c1c(F)cccc1F`, for which the EC50 in the data set on Daphnia magna is more than 500 ppb. This compound also had an LC90 in the data set with Plutella xylostella of 10 ppm. In addition, in data set [1], the logP turned out to be 7.26.

Regarding `O=C(NC(=O)c1c(F)cccc1F)Nc1cc(Cl)c(Oc2ncc(C(F)(F)F)cc2Cl)c(Cl)c1` [CHLORFLUAZURON], in the data set on Plutella xylostella, the LC90 turned out to be 0.04 ppm. The compound also displayed a logP in data set [1] of 5.71.

Take `O=C(NC(=O)c1c(F)cccc1F)Nc1ccc(Cl)cc1` [DIFLUBENZURON]: in the data set on Plutella xylostella, the LC90 is 12.5 ppm.

As for `O=C(NC(=O)c1c(F)cccc1F)Nc1ccc(Oc2ccc(C(F)(F)F)cc2Cl)cc1F` [FLUFENOXURON], the LC90 in the data set with Plutella xylostella worked out at 0.04 ppm.

As for `O=C(NC(=O)c1c(F)cccc1F)Nc1cc(Cl)c(OC(F)(F)C(F)F)c(Cl)c1` [HEXAFLUMURON], the LC90 in the data set on Plutella xylostella was found to be 0.04 ppm.

For the compound `O=C(NC(=O)c1c(F)cccc1F)Nc1cc(Cl)c(F)c(Cl)c1F` [TEFLUBENZURON], the LC90 in the data set with Plutella xylostella came out at 0.02 ppm.

One may read the logP as the decadic logarithm of the partition coefficient of the neutral form, usually between octanol and water. Lower therefore signals lower lipophilicity.
